Measurements as given in patent US12011444B2, “N-substituted indole derivatives as PGE2 receptor modulators” (Idorsia Pharmaceuticals Ltd, priority 2015, dated 2024).

Legend:
[1] = biological target: EP4 (Homo sapiens (Human), UniProt P35408); test: hEP4 cAMP assay (BT549 breast cancer cells, HTRF cAMP); format: cell-based; details: antagonistic activity; mean values where measured multiple times
Method: Plate is pre-incubated 45 minutes at room temperature. Subsequently, 2.5 microliters of PGE2 (final conc. 6 nM) are transferred into the assay plate. Plate is incubated 30 minutes at room temperature.

[2] = biological target: EP2 (Homo sapiens (Human), UniProt P43116);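 also: antagonism of PGE2-stimulated cAMP accumulation in SF295 human glioblastoma cells with endogenous EP2, cAMP read by HTRF, expressed relative to DMSO control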
Chain of EP2 (P43116 whole entry): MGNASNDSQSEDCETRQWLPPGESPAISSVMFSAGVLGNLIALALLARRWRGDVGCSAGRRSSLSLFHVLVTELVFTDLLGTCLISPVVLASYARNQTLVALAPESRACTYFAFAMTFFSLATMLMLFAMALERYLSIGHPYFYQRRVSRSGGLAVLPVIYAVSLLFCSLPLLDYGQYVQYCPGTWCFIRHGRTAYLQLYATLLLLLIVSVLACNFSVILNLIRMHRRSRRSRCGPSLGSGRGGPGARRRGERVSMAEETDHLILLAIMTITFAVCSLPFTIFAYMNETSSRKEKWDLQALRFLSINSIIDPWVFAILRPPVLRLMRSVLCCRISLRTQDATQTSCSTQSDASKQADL

Chain of EP4 (P35408 whole entry): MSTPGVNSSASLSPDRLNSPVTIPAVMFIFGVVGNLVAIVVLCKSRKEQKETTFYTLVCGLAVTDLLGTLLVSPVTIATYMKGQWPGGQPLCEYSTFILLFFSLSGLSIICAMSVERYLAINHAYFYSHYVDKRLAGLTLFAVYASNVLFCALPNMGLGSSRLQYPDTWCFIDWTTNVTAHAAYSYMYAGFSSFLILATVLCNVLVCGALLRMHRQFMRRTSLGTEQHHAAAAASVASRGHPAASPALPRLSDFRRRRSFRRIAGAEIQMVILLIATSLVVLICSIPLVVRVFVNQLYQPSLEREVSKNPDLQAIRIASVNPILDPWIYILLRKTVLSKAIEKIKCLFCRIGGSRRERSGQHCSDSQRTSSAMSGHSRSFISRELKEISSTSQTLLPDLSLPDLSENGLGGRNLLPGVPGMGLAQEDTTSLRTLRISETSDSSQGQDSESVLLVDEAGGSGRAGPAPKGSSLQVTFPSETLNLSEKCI

Structure (SMILES)	IC50 [1] [nM]	IC50 [2] [nM]
CCOc1cc(-c2cc(NCCn3c(C)cc4c(OC)cc(F)cc43)nc(C)n2)ccc1C(=O)O [compound 492]	626	63
CCCOc1cc(-c2cc(NCCn3c(C)cc4c(OC)cc(F)cc43)ncn2)ccc1C(=O)O [compound 493]	119	21
CCOc1cc(-c2cc(NCCn3c(C)cc4c(OC)ccc(F)c43)nc(C)n2)ccc1C(=O)O [compound 494]	618	25
CCCOc1cc(-c2cc(NCCn3c(C)cc4c(OC)ccc(Cl)c43)ncn2)ccc1C(=O)O [compound 495]	350	21
CCCOc1cc(-c2cc(NCCn3c(C)cc4c(OC)ccc(F)c43)ncn2)ccc1C(=O)O [compound 496]	99	8
CCCOc1cc(-c2cc(NCCn3c(C)cc4c(OC)cccc43)ncn2)cc(Cl)c1C(=O)O [compound 497]	168	11
CCCOc1cc(-c2cc(NCCn3c(C)cc4c(OC)cccc43)ncn2)cc(F)c1C(=O)O [compound 498]	609	20
COc1cccc2c1cc(C)n2CCNc1cc(-c2ccc(C(=O)O)c(OC(F)(F)F)c2)ncn1 [compound 499]	714	6
Cc1cc2c(F)c(F)cc(Cl)c2n1CCNc1cc(-c2ccc(C(=O)O)c(SC(C)C)c2)ncn1 [compound 500]	816	17
Cc1c(F)cc(F)c2c1cc(C)n2CCNc1cc(-c2ccc(C(=O)O)c(CC(C)C)c2)ncn1 [compound 501]	69	42
Cc1cc(F)c(F)c2c1cc(C)n2CCNc1cc(-c2ccc(C(=O)O)c(CC(C)C)c2)ncn1 [compound 502]	114	149
Cc1nc(NCCn2c(C)cc3c(C)cc(F)cc32)cc(-c2ccc(C(=O)O)c(CC(C)C)c2)n1 [compound 503]	499	58
Cc1c(F)cc(Cl)c2c1cc(C)n2CCNc1cc(-c2ccc(C(=O)O)c(SC(C)C)c2)ncn1 [compound 504]	535	103
Cc1cc2c(F)cc(F)c(F)c2n1CCNc1cc(-c2ccc(C(=O)O)c(CC(C)C)c2)ncn1 [compound 505]	671	21
Cc1cc2c(F)c(F)cc(F)c2n1CCNc1cc(-c2ccc(C(=O)O)c(CC(C)C)c2)ncn1 [compound 506]	113	12
COc1ccc(C)c2c1cc(C)n2CCNc1cc(-c2ccc(C(=O)O)c(CC(C)C)c2)ncn1 [compound 507]	163	18
Cc1ccc(F)c2c1cc(C)n2CCNc1cc(-c2ccc(C(=O)O)c(OC(F)(F)F)c2)ncn1 [compound 508]	583	37
COc1c(F)cc(Cl)c2c1cc(C)n2CCNc1cc(-c2cc(F)c(C(=O)O)c(SC)c2)ncn1 [compound 509]	684	110
Cc1c(F)cc(F)c2c1cc(C)n2CCNc1cc(-c2ccc(C(=O)O)c(OC(F)F)c2)ncn1 [compound 510]	216	20
CCCc1cc(-c2cc(NCCn3c(C)cc4c(OC)cc(Cl)cc43)ncn2)cc(F)c1C(=O)O [compound 511]	158	18
CCCc1cc(-c2cc(NCCn3c(C)cc4c(OC)ccc(Cl)c43)ncn2)cc(F)c1C(=O)O [compound 512]	253	21
CCCc1cc(-c2cc(NCCn3c(C)cc4c(OC)ccc(Cl)c43)ncn2)cc(Cl)c1C(=O)O [compound 513]	130	24
CCCc1cc(-c2cc(NCCn3c(C)cc4c(OC)ccc(F)c43)ncn2)cc(Cl)c1C(=O)O [compound 514]	56	5

Structure (SMILES)	IC50 [1] [nM]	IC50 [2] [nM]
CCCc1cc(-c2cc(NCCn3c(C)cc4c(OC)ccc(F)c43)ncn2)cc(F)c1C(=O)O [compound 515]	69	8
CCCc1cc(-c2cc(NCCn3c(C)cc4cc(OC)cc(F)c43)ncn2)cc(F)c1C(=O)O [compound 516]	451	324
CCCc1cc(-c2cc(NCCn3c(C)cc4c(OC)c(F)ccc43)ncn2)cc(Cl)c1C(=O)O [compound 517]	373	97
CCCc1cc(-c2cc(NCCn3c(C)cc4c(OC)cc(Cl)cc43)ncn2)cc(Cl)c1C(=O)O [compound 518]	40	11
CCCc1cc(-c2cc(NCCn3c(C)cc4c(OC)cc(F)cc43)ncn2)cc(Cl)c1C(=O)O [compound 519]	34	5
CCCc1cc(-c2cc(NCCn3c(C)cc4c(OC)c(F)ccc43)ncn2)cc(F)c1C(=O)O [compound 520]	482	82
CCCc1cc(-c2cc(NCCn3c(C)cc4c(OC)cc(F)cc43)ncn2)cc(F)c1C(=O)O [compound 521]	64	17
CCCOc1cc(-c2cc(NCCn3c(C)cc4c(C)cc(Cl)cc43)ncn2)cc(Cl)c1C(=O)O [compound 522]	217	21
CCCOc1cc(-c2cc(NCCn3c(C)cc4c(C)cc(F)cc43)ncn2)cc(Cl)c1C(=O)O [compound 523]	141	35
CCCOc1cc(-c2cc(NCCn3c(C)cc4c(C)cc(F)cc43)ncn2)cc(F)c1C(=O)O [compound 524]	377	36
COc1cc(F)c(F)c2c1cc(C)n2CCNc1cc(-c2cc(C(F)(F)F)c(C(=O)O)s2)ncn1 [compound 525]	14	38
Cc1cc(F)cc2c1cc(C)n2CCNc1cc(-c2ccc(C(=O)O)c(OCC(C)C)c2)ncn1 [compound 526]	230	10
CCCCOc1cc(-c2cc(NCCn3c(C)cc4c(C)cc(F)cc43)ncn2)ccc1C(=O)O [compound 527]	134	8
COc1cc(F)cc2c1cc(C)n2CCNc1cc(-c2ccc(C(=O)O)c(C(C)(C)C)c2)ncn1 [compound 528]	151	119
COc1cc(Cl)cc2c1cc(C)n2CCNc1cc(-c2ccc(C(=O)O)c(CC(C)C)c2)ncn1 [compound 529]	110	19
COc1cc(F)cc2c1cc(C)n2CCNc1cc(-c2ccc(C(=O)O)c(CC(C)C)c2)ncn1 [compound 530]	50	21
CCOc1cc(-c2cc(NCCn3c(C)cc4c(C)ccc(F)c43)ncn2)cc(CC)c1C(=O)O [compound 532]	828	33
CCCCOc1cc(-c2cc(NCCn3c(C)cc4c(C)ccc(F)c43)ncn2)ccc1C(=O)O [compound 533]	88	3
Cc1ccc(F)c2c1cc(C)n2CCNc1cc(-c2ccc(C(=O)O)c(OCC(C)C)c2)ncn1 [compound 534]	91	8
COc1ccc(Cl)c2c1cc(C)n2CCNc1cc(-c2ccc(C(=O)O)c(CC(C)C)c2)ncn1 [compound 536]	172	27
COc1ccc(F)c2c1cc(C)n2CCNc1cc(-c2ccc(C(=O)O)c(CC(C)C)c2)ncn1 [compound 537]	81	22
COc1c(F)ccc2c1cc(C)n2CCNc1cc(-c2ccc(C(=O)O)c(CC(C)C)c2)ncn1 [compound 538]	261	64
